# Source: patent US7544664B2, “Sequences facilitating penetration of a substance of interest” (priority 2003, dated 2009)
# Where a SMILES comes first, the peptide text is derived from it. The star is where a group is joined. X3 = CC(=O)O[C@H]1C(=O)[C@@]2(C)[C@H]([C@H](OC(=O)c3ccccc3)[C@]3(O)C[C@H](OC(=O)[C@H](OC(=O)CCCCCN4C(=O)CC(*)C4=O)[C@@H](NC(=O)c4ccccc4)c4ccccc4)C(C)=C1C3(C)C)[C@]1(OC(C)=O)CO[C@@H]1C[C@@H]2O
# Legend:
# [1] = test system: NCI-H1299: human non small cell lung carcinoma; experiment: cells; format: cell-based; settings: H1299 NSCLC, 1 h incubation + 72 h post-incubation
# Procedure: NCI-H1299: human non small cell lung carcinoma (NSCLC) (origin: ATCC #CRL-5803)
# (§1) Viability assays were performed. Briefly, cells are seeded in 96-well plates and incubated with increasing concentrations of drugs for 1 hour then cells are rinsed and incubated with fresh medium without drugs for 72 hours. A WST-1 test (from Roche) was performed and IC50 values (drug concentration that inhibits 50% of cell viability) were estimated from sigmoidal regressions.
# (§2) We tested the inhibition of in vitro cell proliferation of human carcinoma cells, and we calculated IC50 values=drug concentration that inhibits 50% of cell viability.
# [2] = test system: MES-SA/Dx5: human uterine sarcoma, resistant to paclitaxel; settings: read-out: IC50 values, 1 h incubation + 72 h post-incubation
# From the text: MES-SA/Dx5: human uterine sarcoma, resistant to paclitaxel, expressing high P-gp (origin: ATCC #CCL-1977).
# [3] = Solubility in water / aqueous solutions
# [4] = test system: OVCAR-3: human ovary carcinoma; experiment: cells; format: cell-based; settings: OVCAR-3 ovary carcinoma, 1 h incubation + 72 h post-incubation
# Procedure: OVCAR-3: human ovary carcinoma (origin: ATCC #HTB-161)
# as §1, §2
# [5] = test system: HCT116 human colorectal carcinoma; experiment: In vivo anti-tumor activity, first experiment (DPV15-doxorubicin); design: species or system nude mice; settings: Table 13, Q2D3×3W
# Procedure: (§3) Mice: Athymic (nu/nu) nude mice, female, NMRI-nu (nu/nu)-Nude Tumor model: HCT116 human colorectal carcinoma (ATCC Number: CCl-247) Experiment has been performed on tumor-bearing mice. The HCT116 tumors have been established by intradermal injection of 100 μl of the cell suspension (10^7 cells/0.1 mL) on the right flank of the mouse. […] After complete dissolution a solution of 0.9% NaCl for injection (Cooper) 0.9% was added.
# [6] = test system: HCT116 human colorectal carcinoma; experiment: In vivo anti-tumor activity, second experiment (DPV15b-doxorubicin); design: species or system nude mice; settings: Q2D3×3W
# Procedure: as §3
# [7] = test system: HCT116 human colorectal carcinoma; experiment: In vivo anti-tumor activity of DPV7b-doxorubicin conjugate; design: species or system Nude mice; settings: Table 15, Q2D3×3W
# Procedure: Nude mice are injected with 10^7 HCT116 cells (HCT116 human colorectal carcinoma cell line) intradermically in the right flank. Treatments were performed on established solid tumors (tumors size is about 80 to 90 mm^3) at Day 3. Mice were randomized in different groups (equivalent tumors size), 6 mice by group.
# HeLa cells = experiment: Poly-L-Lys inhibition of the internalization of DPV-PO conjugates; format: cell-based; settings: inhibition of DPV-PO internalization (25 μg/ml, 4 h) in HeLa cells
# Procedure: In order to verify this hypothesis, we tested the inhibition of DPV-PO internalization in HeLa cells in the presence of Poly-L-Lysine in the incubation medium: positively charged poly-L-Lys should bind to the negative charges of the cell surface, and prevent the binding of DPVs.
# HeLa cells cultivated on glass labtek slides for 24 hours were pre-incubated with the indicated concentrations of poly-L-Lys for 1 hour at 37° C. Cells were then incubated for 4 hours in the presence of DPV-PO conjugates at 25 μg/ml in cell culture medium containing the same quantity of poly-L-Lys. Internalized PO was quantified after extensive treatment with trypsin to eliminate surface bound material, and subsequent cell lysis. Results are given in picogram PO per 1000 cells.
compound,measurement,setting,value
CC(=O)O[C@H]1C(=O)[C@@]2(C)[C@H]([C@H](OC(=O)c3ccccc3)[C@]3(O)C[C@H](OC(=O)[C@H](OC(=O)CCCCCN4C(=O)CC(SC[C@H](NC(=O)[C@H](CCCNC(=N)N)NC(=O)[C@H](CO)NC(=O)[C@H](CCC(N)=O)NC(=O)[C@H](CCCNC(=N)N)NC(=O)[C@H](CCC(=O)O)NC(=O)[C@H](CCCNC(=N)N)NC(=O)[C@H](CCCNC(=N)N)NC(=O)[C@H](CC(C)C)NC(=O)[C@H](CCCNC(=N)N)NC(=O)[C@H](CO)NC(=O)[C@H](CCC(N)=O)NC(=O)[C@H](CCCNC(=N)N)NC(=O)[C@H](CCC(=O)O)NC(=O)[C@H](CCCNC(=N)N)NC(=O)[C@H](CCCNC(=N)N)NC(=O)[C@@H](N)CC(C)C)C(=O)O)C4=O)[C@@H](NC(=O)c4ccccc4)c4ccccc4)C(C)=C1C3(C)C)[C@]1(OC(C)=O)CO[C@@H]1C[C@@H]2O (stereo partly shown) [DPV15-E-PTX] (H-LRRERQSRLRRERQSRC(X3)-OH),IC50,[1],4300 ± 2700 nM
same,IC50,[2],33000 ± 5700 nM
same,solubility,[3]; water,≥ 10000 µg/mL
same,IC50,[4],370 ± 50 nM
COc1cccc2c1C(=O)c1c(O)c3c(c(O)c1C2=O)C[C@@](O)(C(=O)CO)C[C@@H]3O[C@H]1C[C@H](N)[C@H](O)[C@H](C)O1 [Doxorubicin],IC50,"[1]; Homo sapiens, NCI-H1299",620 ± 320 nM
same,Tumor doubling time,[5]; 3.5 μmol/kg i.v.,10.20 days
same,Tumor growth delay,[5]; 3.5 μmol/kg i.v.,21.20 days
same,Tumor growth delay,[5]; 5 μmol/kg i.v.,26.40 days
same,Tumor doubling time,[5]; 6.5 μmol/kg i.v.,22.90 days
same,Tumor growth delay,[5]; 6.5 μmol/kg i.v.,35.29 days
same,mice body weight loss,[6]; 7 μmol/kg i.v.,> 20%
same,Tumor growth delay,"[6]; Table 14, 5 μmol/kg i.v.",27.86 days
same,Tumor growth delay,"[6]; Table 14, 6 μmol/kg i.v.",29.98 days
same,Tumor doubling time,"[6]; Table 14, 7 μmol/kg i.v.",13.38 days
same,Tumor growth delay,"[6]; Table 14, 7 μmol/kg i.v.",35.16 days
same,IC50,[4]; Homo sapiens,7300 ± 4200 nM
same,Tumor doubling time,[7]; 3.5 μmol/kg i.v.,10.2 days
same,Tumor growth delay,[7]; 3.5 μmol/kg i.v.,21.20 days
same,Tumor growth delay,[7]; 5 μmol/kg i.v.,26.40 days
same,Tumor doubling time,[7]; 6.5 μmol/kg i.v.,22.9 days
same,Tumor growth delay,[7]; 6.5 μmol/kg i.v.,35.29 days
"CC(=O)O[C@H]1C(=O)[C@@]2(C)[C@H]([C@H](OC(=O)c3ccccc3)[C@]3(O)C[C@H](OC(=O)[C@H](O)[C@@H](NC(=O)c4ccccc4)c4ccccc4)C(C)=C1C3(C)C)[C@]1(OC(C)=O)CO[C@@H]1C[C@@H]2O [Paclitaxel (Hauser), Paclitaxel]",IC50,"[1]; Homo sapiens, NCI-H1299",230 ± 170 nM
same,Solubility in water / aqueous solutions,[3],not soluble
same,IC50,[4]; Homo sapiens,40 ± 20 nM
Poly-L-Lysine,IC50 (concentration at which 50% of the maximum internalization is achieved),HeLa cells,around 25 μg/ml
